Source: ChEMBL document CHEMBL4346715, “Antibacterial activity study of 1,2,4-triazole derivatives” (Eur J Med Chem, 2019)
Values after ≈ are worked out from the molar mass of the structure shown.

Legend:
Escherichia coli [1] = experiment: Antibacterial activity against Escherichia coli; type: functional
Staphylococcus aureus [2] = experiment: Antibacterial activity against Staphylococcus aureus; type: functional
Streptococcus pneumoniae = experiment: Antibacterial activity against Streptococcus pneumoniae; type: functional
Bacillus subtilis [3] = experiment: Antibacterial activity against Bacillus subtilis; type: functional
Clostridium tetani = experiment: Antibacterial activity against Clostridium tetani; type: functional
Candida albicans = experiment: Antifungal activity against Candida albicans; type: functional
Trichophyton rubrum = experiment: Antifungal activity against Trichophyton rubrum; type: functional
Aspergillus niger = experiment: Antifungal activity against Aspergillus niger; type: functional
Plasmodium falciparum = experiment: Antiplasmodial activity against Plasmodium falciparum; type: functional, organism-based
Escherichia coli [4] = experiment: Antibacterial activity against Escherichia coli assessed as zone of inhibition; type: functional
Staphylococcus aureus [5] = experiment: Antibacterial activity against Staphylococcus aureus assessed as zone of inhibition; type: functional
Bacillus subtilis [6] = experiment: Antibacterial activity against Bacillus subtilis assessed as zone of inhibition; type: functional
Salmonella typhimurium = experiment: Antibacterial activity against Salmonella typhimurium assessed as zone of inhibition; type: functional, Salmonella enterica subsp. enterica serovar Typhimurium
Micrococcus luteus = experiment: Antibacterial activity against Micrococcus luteus incubated for 18 hrs post 30 mins pre-diffusion by disk diffusion method; type: functional
Bacillus subtilis [7] = experiment: Antibacterial activity against Bacillus subtilis incubated for 18 hrs post 30 mins pre-diffusion by disk diffusion method; type: functional
Escherichia coli [8] = experiment: Antibacterial activity against Escherichia coli incubated for 18 hrs post 30 mins pre-diffusion by disk diffusion method; type: functional
Listeria innocua = experiment: Antibacterial activity against Listeria innocua incubated for 18 hrs post 30 mins pre-diffusion by disk diffusion method; type: functional
Staphylococcus aureus [9] = experiment: Antibacterial activity against methicillin-resistant Staphylococcus aureus incubated for 18 hrs post 30 mins pre-diffusion by disk diffusion method; type: functional
Bacillus anthracis = experiment: Antibacterial activity against Bacillus anthracis incubated for 18 hrs post 30 mins pre-diffusion by disk diffusion method; type: functional

Cc1nn(-c2ccccc2)c(-n2cncn2)c1-c1cc(-c2ccc(F)cc2)nc2nc3ccccc3n12
MIC (Escherichia coli [1]): 62.5 to 125 µg/mL (≈ 128 to 257 µM)
MIC (Staphylococcus aureus [2]): 62.5 to 125 µg/mL (≈ 128 to 257 µM)
MIC (Streptococcus pneumoniae): 62.5 to 125 µg/mL (≈ 128 to 257 µM)
MIC (Bacillus subtilis [3]): 62.5 to 125 µg/mL (≈ 128 to 257 µM)
MIC (Clostridium tetani): 62.5 to 125 µg/mL (≈ 128 to 257 µM)
MIC (Candida albicans): 100 to 500 µg/mL (≈ 206 to 1030 µM)
MIC (Trichophyton rubrum): 100 to 500 µg/mL (≈ 206 to 1030 µM)
MIC (Aspergillus niger): 100 to 500 µg/mL (≈ 206 to 1030 µM)
IC50 (Plasmodium falciparum): 0.041 µg/mL (≈ 0.0843 µM)

CN(C)[C@@H]1C(O)=C(C(N)=O)C(=O)[C@@]2(O)C(O)=C3C(=O)c4c(O)cccc4[C@@](C)(O)[C@H]3C[C@@H]12 [TETRACYCLINE]
inhibition zone (IZ) (Escherichia coli [4]): 14 - 17 mm
inhibition zone (IZ) (Staphylococcus aureus [5]): 14 - 17 mm
inhibition zone (IZ) (Bacillus subtilis [6]): 14 - 17 mm
inhibition zone (IZ) (Salmonella typhimurium): 14 - 17 mm
MIC (Micrococcus luteus): 20 to 21 µg/mL (≈ 45 to 47.3 µM)
MIC (Bacillus subtilis [7]): 20 to 21 µg/mL (≈ 45 to 47.3 µM)
MIC (Escherichia coli [8]): 20 to 21 µg/mL (≈ 45 to 47.3 µM)
MIC (Listeria innocua): 20 to 21 µg/mL (≈ 45 to 47.3 µM)
MIC (Staphylococcus aureus [9]): 31 to 1000 µg/mL (≈ 69.8 to 2250 µM)
MIC (Bacillus anthracis): 31 to 1000 µg/mL (≈ 69.8 to 2250 µM)

C=C[C@H]1CN2CC[C@H]1C[C@H]2[C@H](O)c1ccnc2ccc(OC)cc12 [QUININE]
IC50 (Plasmodium falciparum): 0.268 µg/mL (≈ 0.826 µM)
